# Measurements taken from US6756362B2, “Methods and compositions based on inhibition of cell invasion and fibrosis by anionic polymers” (priority 1991, dated 2004).
# Assays:
# [1] = system: DRG explants, neuronal and non-neuronal cell migration; assay: Explant outgrowth assay; type: cell-based, chick
# Experimental: Primary Explant Cultures. Dorsal root ganglia (DRGs) were obtained from E8-E9 chick embryos. The dissection was carried out in CMF-HBSS. The spinal cord was exposed and DRGs were removed and cleaned from surrounding connective tissue. DRGs were plated in DMEM/F12, 10% fetal calf serum containing 50 ng/ml nerve growth factor (NGF). The DRGs were seeded on laminin (LN, Gibco Laboratories) or poly-L-lysine (PLL, Sigma) coated dishes.
# The relative outgrowth, compared to outgrowth of untreated controls, was rated as follows: 1: 0-19% of control; 2: 20-39% of control; 3: 40-59% of control; 4: 60-79% of control; 5: 80-100% of control.
# The effect of heparin and dextran sulfate on cell migration from explant cultures of chick DRGs was tested. DRGs were plated in culture dishes precoated with a substratum of either PLL or LN and grown in culture medium containing different concentrations of heparin, dextran sulfate or dextran solutions. In the absence of a test compound, within 24-48 hours a halo of neuritic outgrowth and migrating non-neuronal cells, i.e., fibroblasts and Schwann cells, was evident around the ganglia (FIG. 6A). The size of the cellular halo migrating from the DRG explant was reduced when the explant was grown in the presence of 0.4 mg/ml heparin (FIG. 6B). […] In contrast, 0.4 mg/ml dextran had no effect (FIG. 6D). The size of the cellular halo emanating from DRGs grown in the presence of test compounds was evaluated relative to untreated control and rated as described in Section 8.1.3, supra (Table 9).
# [2] = system: rat meningeal fibroblasts (RMF); assay: Colorimetric cell adhesion assay, RMF; type: cell-based; settings: RMF on PLL; 4 hr incubation; FIG. 7
# Experimental: Primary Cell Cultures. Primary cultures of rat meningeal fibroblasts (RMF) were obtained from P-3 rat pups. The tissue was removed from the animals and transferred to Leibovitz's L-15 with L-glutamine medium. The tissue was then cut into small pieces with a scalpel blade, enzymatically dissociated with 0.25% trypsin in Ca^2+/Mg^2+ free Hank's balanced salt solution (CMF-HBSS, Gibco Laboratories) for 20 minutes at 37° C., and mechanically triturated. The cells were rinsed with DMEM plus 10% FCS, concentrated by centrifugation and subsequently diluted in DMEM with 10% FCS for plating at 5.0×10^6 cells per 75 cm^2 flask. Adult rat sciatic nerve fibroblasts (RSF) were obtained by explantation of 1 mm sections of adult rat sciatic nerve.
# Microtiter plates were precoated with poly-L-lysine and blocked with 1% BSA in DMEM for 20 min prior to addition of cells. The cells were plated on the precoated 96-well plates and test compounds were added to the culture medium. Following 4-24 hr incubation at 36° C., 5% C02, in a humidified incubator, the tetrazolium salt MTT (3-(4,5-dimethylthazol-2-yl)-2,5-diphenyl tetrazolium bromide) was added. The cultures were incubated for 2 hr to allow mitochondrial succinate dehydrogenase, found in viable cells, to […] the MTT to its formazan blue reaction product. The media was aspirated and the wells were rinsed to remove all detached cells. The formazan blue reaction product in attached cells was solubilized with 0.08 N HCl in isopropanol, and the plates were read in a microtiter plate reader (Dynatech MR4000) at 570 nm with a 630 nm reference filter. The resulting optical density readings are directly related to the number of viable cells in the well (Mosmann, T., 1983, J. Immunol. Methods 65:55-63). The samples were run in 3-6 replicates per point and the SD was less than 5%.
# The adhesion of fibroblasts to PLL-coated microtiter plates in the presence of test compounds in the culture medium was evaluated using an MTT assay as described in Section 8.1.5., supra, and the number of attached cells was expressed as percent of control. The effect of 4 hr incubation in the presence of heparin, pentosan polysulfate, dextran sulfate, and dextran on adhesion of rat meningeal fibroplasts (RMF) and 3T3 cells to PLL is shown in FIG. 7.
# Sulfur content = type: physicochemical; settings: by weight
# [3] = system: epidural fibrosis at laminectomy site, Lewis inbred rats; assay: Epidural fibrosis after lumbar laminectomy in rats, gross evaluation; type: in vivo, rat; parameters: scale not given here; settings: Table 4; 20 mg/ml; 4 weeks post-implantation
# [4] = 0.5 μg/ml in culture medium, PLL substratum
# [5] = 1 μg/ml in culture medium, PLL substratum
# [6] = 1.25 μg/ml in culture medium, LN substratum
# [7] = 1.25 μg/ml in culture medium, PLL substratum
# [8] = 2 μg/ml in culture medium, LN substratum
# [9] = 2 μg/ml in culture medium, PLL substratum
# [10] = 10 μg/ml in culture medium, LN substratum
# [11] = 10 μg/ml in culture medium, PLL substratum
# [12] = 50 μg/ml in culture medium, LN substratum
# [13] = 50 μg/ml in culture medium, PLL substratum
# [14] = 200 μg/ml in culture medium, LN substratum
# [15] = 200 μg/ml in culture medium, PLL substratum
# [16] = 400 μg/ml in culture medium, LN substratum
# [17] = 400 μg/ml in culture medium, PLL substratum
Sulfur Content (Sulfur content),Substance,"Cellular Migration from DRG Explants, rating relative to untreated control [1, 4]","Cellular Migration from DRG Explants, rating relative to untreated control [1, 5]","Cellular Migration from DRG Explants, rating relative to untreated control [1, 6]","Cellular Migration from DRG Explants, rating relative to untreated control [1, 7]","Cellular Migration from DRG Explants, rating relative to untreated control [1, 8]","Cellular Migration from DRG Explants, rating relative to untreated control [1, 9]","Cellular Migration from DRG Explants, rating relative to untreated control [1, 10]","Cellular Migration from DRG Explants, rating relative to untreated control [1, 11]","Cellular Migration from DRG Explants, rating relative to untreated control [1, 12]","Cellular Migration from DRG Explants, rating relative to untreated control [1, 13]","Cellular Migration from DRG Explants, rating relative to untreated control [1, 14]","Cellular Migration from DRG Explants, rating relative to untreated control [1, 15]","Cellular Migration from DRG Explants, rating relative to untreated control [1, 16]","Cellular Migration from DRG Explants, rating relative to untreated control [1, 17]",number of attached cells compared to untreated controls [2],TOTAL SCORE 4 WEEKS [3]
15.3%,dextran sulfate,5 (5 = 80-100% of control),3 (3 = 40-59%),5 (5 = 80-100% of control),2 (2 = 20-39%),3 (3 = 40-59%),1 (1 = 0-19%),1 (1 = 0-19%),1 (1 = 0-19%),1 (1 = 0-19%),1 (1 = 0-19%),1 (1 = 0-19%),1 (1 = 0-19%),1 (1 = 0-19%),1 (1 = 0-19%),decreased,1.8 ± 0.9
0%,dextran [reference compound],–,–,–,–,5 (5 = 80-100% of control),–,5 (5 = 80-100% of control),–,5 (5 = 80-100% of control),5 (5 = 80-100% of control),5 (5 = 80-100% of control),5 (5 = 80-100% of control),5 (5 = 80-100% of control),5 (5 = 80-100% of control),slight increase,10.0 ± 1.2
11.8%,Heparin,5 (5 = 80-100% of control),4 (4 = 60-79%),5 (5 = 80-100% of control),2 (2 = 20-39%),–,2 (2 = 20-39%),5 (5 = 80-100% of control),2 (2 = 20-39%),5 (5 = 80-100% of control),2 (2 = 20-39%),5 (5 = 80-100% of control),2 (2 = 20-39%),5 (5 = 80-100% of control),1 (1 = 0-19%),decreased,–
